# Test results reported in ChEMBL document CHEMBL3885881, “DrugMatrix”.
# Organism: Rattus norvegicus
# Assay: DrugMatrix - Regimen: Daily Repeat
# Assay type: toxicity, organism-based, Sprague-Dawley
# Set-up: regimen Daily Repeat, gender Male, age 6-8 weeks
# Conditions: in vivo, po, route oral GAVAGE, […]; for ABSOLUTE BASOPHIL / ABSOLUTE EOSINOPHIL / ABSOLUTE LYMPHOCYTE / ABSOLUTE MONOCYTE / ABSOLUTE SEGMENTED NEUTROPHIL / BASOPHIL / EOSINOPHIL / ERYTHROCYTE COUNT / HEMATOCRIT / HEMOGLOBIN / LEUKOCYTE COUNT / LYMPHOCYTE / MEAN CORPUSCULAR HEMOGLOBIN / MEAN CORPUSCULAR HEMOGLOBIN CONCENTRATION / MEAN CORPUSCULAR VOLUME / MONOCYTE / NEUTROPHIL / NUCLEATED RED BLOOD CELLS / PLATELET COUNT: tissue Blood; for ALANINE AMINOTRANSFERASE / ALBUMIN / ALKALINE PHOSPHATASE / ASPARTATE AMINOTRANSFERASE / BLOOD UREA NITROGEN / CARBON DIOXIDE / CHLORIDE / CHOLESTEROL / CREATINE PHOSPHOKINASE / CREATININE / GLUCOSE / LACTATE DEHYDROGENASE / LIPASE / PHOSPHORUS / POTASSIUM / SODIUM / TOTAL BILIRUBIN / TOTAL PROTEIN / URIC ACID: tissue Plasma
# [1] = 25 mg/kg, 72 h, dose level Low, time 3 day
# [2] = 25 mg/kg, 120 h, dose level Low, time 5 day
# [3] = 250 mg/kg, 72 h, dose level High, time 3 day
# [4] = 250 mg/kg, 120 h, dose level High, time 5 day
smiles,measurement,setting,value
CC(C)C(Br)C(=O)NC(N)=O (configuration not stated) [BROMISOVALUM],ABSOLUTE BASOPHIL,[1],0 CELLS/uL
same,ABSOLUTE EOSINOPHIL,[1],72.33 CELLS/uL
same,ABSOLUTE LYMPHOCYTE,[1],9251.33 CELLS/uL
same,ABSOLUTE MONOCYTE,[1],35.67 CELLS/uL
same,ABSOLUTE SEGMENTED NEUTROPHIL,[1],740.67 CELLS/uL
same,BASOPHIL,[1],0%
same,EOSINOPHIL,[1],0.67%
same,ERYTHROCYTE COUNT,[1],5.09 x10E6/uL
same,HEMATOCRIT,[1],32.1%
same,HEMOGLOBIN,[1],12.97 G/DL
same,LEUKOCYTE COUNT,[1],10.1 x10E3/uL
same,LYMPHOCYTE,[1],91.67%
same,MEAN CORPUSCULAR HEMOGLOBIN,[1],25.47 pg
same,MEAN CORPUSCULAR HEMOGLOBIN CONCENTRATION,[1],40.4 G/DL
same,MEAN CORPUSCULAR VOLUME,[1],63.03 fL
same,MONOCYTE,[1],0.33%
same,NEUTROPHIL,[1],7.33%
same,NUCLEATED RED BLOOD CELLS,[1],0 /100WBC
same,PLATELET COUNT,[1],1168.33 x10E3/uL
same,ALANINE AMINOTRANSFERASE,[1],71.33 u/L
same,ALBUMIN,[1],4.37 G/DL
same,ALKALINE PHOSPHATASE,[1],465.67 u/L
same,ASPARTATE AMINOTRANSFERASE,[1],81.33 u/L
same,BLOOD UREA NITROGEN,[1],12.67 mg/dL
same,CARBON DIOXIDE,[1],33.33 mmol/L
same,CHLORIDE,[1],101 MEQ/L
same,CHOLESTEROL,[1],83 mg/dL
same,CREATINE PHOSPHOKINASE,[1],114.33 u/L
same,CREATININE,[1],0.13 mg/dL
same,GLUCOSE,[1],140.33 mg/dL
same,LACTATE DEHYDROGENASE,[1],109.33 u/L
same,LIPASE,[1],12.67 u/L
same,PHOSPHORUS,[1],10.3 mg/dL
same,POTASSIUM,[1],5.88 MEQ/L
same,SODIUM,[1],149.4 MEQ/L
same,TOTAL BILIRUBIN,[1],0.23 mg/dL
same,TOTAL PROTEIN,[1],5.6 G/DL
same,URIC ACID,[1],0.63 mg/dL
same,ABSOLUTE BASOPHIL,[2],0 CELLS/uL
same,ABSOLUTE EOSINOPHIL,[2],0 CELLS/uL
same,ABSOLUTE LYMPHOCYTE,[2],11869 CELLS/uL
same,ABSOLUTE MONOCYTE,[2],46.67 CELLS/uL
same,ABSOLUTE SEGMENTED NEUTROPHIL,[2],851 CELLS/uL
same,BASOPHIL,[2],0%
same,EOSINOPHIL,[2],0%
same,ERYTHROCYTE COUNT,[2],5.78 x10E6/uL
same,HEMATOCRIT,[2],35.77%
same,HEMOGLOBIN,[2],14.1 G/DL
same,LEUKOCYTE COUNT,[2],12.77 x10E3/uL
same,LYMPHOCYTE,[2],93%
same,MEAN CORPUSCULAR HEMOGLOBIN,[2],24.37 pg
same,MEAN CORPUSCULAR HEMOGLOBIN CONCENTRATION,[2],39.43 G/DL
same,MEAN CORPUSCULAR VOLUME,[2],61.83 fL
same,MONOCYTE,[2],0.33%
same,NEUTROPHIL,[2],6.67%
same,NUCLEATED RED BLOOD CELLS,[2],0 /100WBC
same,PLATELET COUNT,[2],1234 x10E3/uL
same,ALANINE AMINOTRANSFERASE,[2],59.67 u/L
same,ALBUMIN,[2],4.33 G/DL
same,ALKALINE PHOSPHATASE,[2],401 u/L
same,ASPARTATE AMINOTRANSFERASE,[2],86.33 u/L
same,BLOOD UREA NITROGEN,[2],12.67 mg/dL
same,CARBON DIOXIDE,[2],27 mmol/L
same,CHLORIDE,[2],103 MEQ/L
same,CHOLESTEROL,[2],65 mg/dL
same,CREATINE PHOSPHOKINASE,[2],275 u/L
same,CREATININE,[2],0.14 mg/dL
same,GLUCOSE,[2],162.67 mg/dL
same,LACTATE DEHYDROGENASE,[2],114.33 u/L
same,LIPASE,[2],9.67 u/L
same,PHOSPHORUS,[2],12.73 mg/dL
same,POTASSIUM,[2],6.6 MEQ/L
same,SODIUM,[2],147.97 MEQ/L
same,TOTAL BILIRUBIN,[2],0.2 mg/dL
same,TOTAL PROTEIN,[2],6.17 G/DL
same,URIC ACID,[2],1.7 mg/dL
same,ABSOLUTE BASOPHIL,[3],0 CELLS/uL
same,ABSOLUTE EOSINOPHIL,[3],0 CELLS/uL
same,ABSOLUTE LYMPHOCYTE,[3],11820.33 CELLS/uL
same,ABSOLUTE MONOCYTE,[3],38.33 CELLS/uL
same,ABSOLUTE SEGMENTED NEUTROPHIL,[3],1174.67 CELLS/uL
same,BASOPHIL,[3],0%
same,EOSINOPHIL,[3],0%
same,ERYTHROCYTE COUNT,[3],5.57 x10E6/uL
same,HEMATOCRIT,[3],35.87%
same,HEMOGLOBIN,[3],14.33 G/DL
same,LEUKOCYTE COUNT,[3],13.03 x10E3/uL
same,LYMPHOCYTE,[3],91%
same,MEAN CORPUSCULAR HEMOGLOBIN,[3],25.8 pg
same,MEAN CORPUSCULAR HEMOGLOBIN CONCENTRATION,[3],39.97 G/DL
same,MEAN CORPUSCULAR VOLUME,[3],64.47 fL
same,MONOCYTE,[3],0.33%
same,NEUTROPHIL,[3],8.67%
same,NUCLEATED RED BLOOD CELLS,[3],0 /100WBC
same,PLATELET COUNT,[3],1177.33 x10E3/uL
same,ALANINE AMINOTRANSFERASE,[3],70 u/L
same,ALBUMIN,[3],4.17 G/DL
same,ALKALINE PHOSPHATASE,[3],407.67 u/L
same,ASPARTATE AMINOTRANSFERASE,[3],90.33 u/L
same,BLOOD UREA NITROGEN,[3],15 mg/dL
same,CARBON DIOXIDE,[3],27.33 mmol/L
same,CHLORIDE,[3],103 MEQ/L
same,CHOLESTEROL,[3],62.67 mg/dL
same,CREATINE PHOSPHOKINASE,[3],210.67 u/L
same,CREATININE,[3],0.26 mg/dL
same,GLUCOSE,[3],148 mg/dL
same,LACTATE DEHYDROGENASE,[3],109.33 u/L
same,LIPASE,[3],10.33 u/L
same,PHOSPHORUS,[3],11.9 mg/dL
same,POTASSIUM,[3],6.86 MEQ/L
same,SODIUM,[3],144.53 MEQ/L
same,TOTAL BILIRUBIN,[3],0.2 mg/dL
same,TOTAL PROTEIN,[3],5.67 G/DL
same,URIC ACID,[3],1.67 mg/dL
same,ABSOLUTE BASOPHIL,[4],0 CELLS/uL
same,ABSOLUTE EOSINOPHIL,[4],46.33 CELLS/uL
same,ABSOLUTE LYMPHOCYTE,[4],14344.33 CELLS/uL
same,ABSOLUTE MONOCYTE,[4],108 CELLS/uL
same,ABSOLUTE SEGMENTED NEUTROPHIL,[4],1434.67 CELLS/uL
same,BASOPHIL,[4],0%
same,EOSINOPHIL,[4],0.33%
same,ERYTHROCYTE COUNT,[4],6.03 x10E6/uL
same,HEMATOCRIT,[4],36.47%
same,HEMOGLOBIN,[4],14.63 G/DL
same,LEUKOCYTE COUNT,[4],15.93 x10E3/uL
same,LYMPHOCYTE,[4],89.67%
same,MEAN CORPUSCULAR HEMOGLOBIN,[4],24.23 pg
same,MEAN CORPUSCULAR HEMOGLOBIN CONCENTRATION,[4],40.13 G/DL
same,MEAN CORPUSCULAR VOLUME,[4],60.47 fL
same,MONOCYTE,[4],0.67%
same,NEUTROPHIL,[4],9.33%
same,NUCLEATED RED BLOOD CELLS,[4],0 /100WBC
same,PLATELET COUNT,[4],1192.33 x10E3/uL
same,ALANINE AMINOTRANSFERASE,[4],64.67 u/L
same,ALBUMIN,[4],4.43 G/DL
same,ALKALINE PHOSPHATASE,[4],429.33 u/L
same,ASPARTATE AMINOTRANSFERASE,[4],83.67 u/L
same,BLOOD UREA NITROGEN,[4],13.33 mg/dL
same,CARBON DIOXIDE,[4],25.67 mmol/L
same,CHLORIDE,[4],104 MEQ/L
same,CHOLESTEROL,[4],55 mg/dL
same,CREATINE PHOSPHOKINASE,[4],157.67 u/L
same,CREATININE,[4],0.2 mg/dL
same,GLUCOSE,[4],140.67 mg/dL
same,LACTATE DEHYDROGENASE,[4],110.67 u/L
same,LIPASE,[4],9.67 u/L
same,PHOSPHORUS,[4],9.97 mg/dL
same,POTASSIUM,[4],6.56 MEQ/L
same,SODIUM,[4],144.1 MEQ/L
same,TOTAL BILIRUBIN,[4],0.2 mg/dL
same,TOTAL PROTEIN,[4],6.27 G/DL
same,URIC ACID,[4],1.53 mg/dL
